The subject of one data set is P. acnes. In words: Agar dilution method, growth of P. acnes and MIC, single compounds. Format: cell-based, Propionibacterium acnes. Set-up: key to Growth Index Plate 1 / Growth Index Plate 2 / Growth Index Plate 3 / Growth Index Avg: +++: confluent growth (comparable to control); ++: less confluent growth; +: marked reduction in growth to multiple tiny, single colonies; −: no growth present. To be noted: for MIC: Cutibacterium acnes, compound alone, MIC = concentration with marked reduction (+) of growth, read-out: MIC (mg/mL) as per P-11-0007 or P-11-0008 Addendum A. As to the method:
Several compounds including fatty acids such as DGLA, 15-OHEPA, and 15-HETrE were tested to determine their capacity to inhibit the growth of P. acnes. In an exemplary method, an agar dilution method was used to determine the minimum inhibitory concentration (MIC) of each tested compound. Briefly, the agar dilution method involved preparing a series of concentrations of each compound (e.g., nicotinamide, benzoyl peroxide, adapalene, metronidazole, DGLA, 15-OHEPA, and 15-HETrE) in a Reinforced Clostridial Agar (RCA) media that facilitates growth of P. acnes under anaerobic conditions. An inoculum of P. acnes was prepared by incubation of P. acnes for approximately seven days at 35-37° C. to achieve a ≧1.0 OD600 inoculum of P. acnes in RCM broth. A portion of this inoculum was then added to the surface of each plate as a 10 μL spot and incubated at 35-37° C. for 72 hours or more. Growth of P. acnes was then observed and compared to control plates in which no compound has been added, and positive inhibition plates prepared with erythromycin. […] The growth of P. acnes in the presence of nicotinamide, benzoyl peroxide, adapalene, metronidazole, DGLA, 15-OHEPA, and 15-HETrE was determined with varying concentrations of the compound (see, Table 2). Next, the MIC was determined as the concentration at which a marked reduction (+) occurs in the appearance of growth on the test plate (as per Clinical and Laboratory Standards Institute M11-A7).
(In general: Agar dilution tests growth on a series of plates holding different concentrations.)

The test system of data set [1] is immortalized sebocyte cell line. As to the kind of experiment: Sebocyte proliferation: viability (M.T.T. test) and morphology after 72 hours. It is filed as cell-based, human. The text has this:
In an embodiment, the pharmacodynamics of a composition comprising DGLA, 15-OHEPA, or 15-HETrE as disclosed herein may be examined using a model of sebum production. In an embodiment, the effects of a composition comprising DGLA, 15-OHEPA, or 15-HETrE as disclosed herein on the proliferation and/or differentiation of sebocytes serves as a model for the pharmacodynamics on sebum production (see, e.g., U.S. Patent Application Publication No. US 2010/0278948, the contents of which are incorporated by reference). In an exemplary method, primary sebocytes are isolated from skin tissue (e.g., human scalp tissue). The isolated primary sebocytes are then immortalized, and the resulting cell line is divided into discrete cultures. Discrete cultures can then be treated with various concentrations of a composition comprising DGLA, 15-OHEPA, or 15-HETrE as disclosed herein. For comparison, a negative control (e.g., a culture of an immortalized sebocyte cell line left untreated) and/or a positive control (e.g., treatment of an immortalized sebocyte cell line with a compound known to inhibit sebocyte growth such as isotretinoin) can be maintained alongside of the test cultures. In an embodiment, a pharmacodynamic assay is maintained for an amount of time suitable to observe differences (if any) between the various immortalized sebocyte cell cultures, for example less than about 24 hours, about 24 hours, about 48 hours, about 72 hours, about 96 hours, about 120 hours, about 144 hours, more than about 144 hours, etc. The effect of treating an immortalized sebocyte cell culture with a given composition or compound can be determined by quantifying, for example and without limitation, the viability of the cultures (e.g., the percent viability and/or mean percent viability). The effect of treating an immortalized sebocyte cell culture with a given composition or compound can be determined by qualitatively assessing, for example and without limitation, morphological changes in the culture. In an embodiment, changes in the morphology of the culture may be classified as: no change (e.g., “normal” population), reduced growth (e.g., “growth reduction”), toxic changes (e.g., “toxicity”), and/or cell death (e.g., “cell mortality”).
The compounds tested in Example 1 were tested to determine the capacity of each to reduce sebum production. In an exemplary method, each compound's ability to inhibit the growth of an immortalized sebocyte cell line was determined.
Primary sebocytes were isolated from sebaceous glands obtained from dissections of human scalp tissue. The primary sebocytes were immortalized and the resulting cell culture was used to study the effects of DGLA and 15-HETrE on sebocyte cell proliferation. Individual cell cultures were treated with eight concentrations of DGLA (1.00 μM, 4.00 μM, […], 37.00 μM, 111.00 μM, 333.00 μM, 1000.00 μM, and 3000.00 μM), and eight concentrations of 15-HETrE (0.50 1.00 4.00 10.00 40.00 110.00 330.00 1000.00). As a positive control, individual cell cultures were treated with eight concentrations of Isotretinoin. Negative control cultures were also maintained. After 72 hours, the mean percent viability for each of the cultures was determined by colorimetry (M.T.T. test) according to J. Mosmann, J. Immunol. Meth., vol. 65, pp. 55-63 (1983), and morphological differences were also observed at that time (see Table 9).

Data set [2] has the same test system. The data set is described as above. Format: cell-based. The conditions noted are these: Homo sapiens.

The structures appear in SMILES notation. Values after ≈ are worked out from the molar mass of the structure shown.

As to `CCCCCC(O)/C=C/C=C\C/C=C\CCCCCCC(=O)O` (stereo not drawn) [15-HETrE, 15-hydroxy-eicosa-8(Z),11(Z),13(E)-trienoic acid], in the data set with P. acnes (0.01 mg/ml), the “effect on growth of P. acnes on its own” value is “no effect”. The “Growth Index Avg” value with P. acnes (compound at 0.00001 mg/mL) is given as “+++”; in the data set on P. acnes (compound at 0.0001 mg/mL) it was “+++”; in the data set on P. acnes (compound at 0.001 mg/mL), “+++”; in the data set with P. acnes (compound at 0.01 mg/mL), “++”; in the data set on P. acnes (compound at 0.05 mg/mL) it was “−”. For the same compound, the “Growth Index Plate 1” value with P. acnes (compound at 0.00001 mg/mL) is reported as “+++”; with P. acnes (compound at 0.0001 mg/mL), “+++”; in the data set with P. acnes (compound at 0.001 mg/mL), “+++”; with P. acnes (compound at 0.01 mg/mL) it was “++”; with P. acnes (compound at 0.05 mg/mL), “−”. The “Growth Index Plate 2” value in the data set on P. acnes (compound at 0.00001 mg/mL) was “+++”; in the data set with P. acnes (compound at 0.0001 mg/mL), “+++”; in the data set on P. acnes (compound at 0.001 mg/mL), “+++”; in the data set on P. acnes (compound at 0.01 mg/mL), “+++”; with P. acnes (compound at 0.05 mg/mL), “−”. Also, the “Growth Index Plate 3” value is “+++” in the data set with P. acnes (compound at 0.00001 mg/mL); “+++” with P. acnes (compound at 0.0001 mg/mL); “+++” in the data set on P. acnes (compound at 0.001 mg/mL); “++” in the data set with P. acnes (compound at 0.01 mg/mL); “−” with P. acnes (compound at 0.05 mg/mL). For the same compound, the “Mean % Viability” value in data set [1] (0.5 µM) came to 85%; in data set [1] (1 µM) it was 77%; in data set [1] (4 µM), 52%; in data set [1] (10 µM), 18%; in data set [1] (40 µM), 1%; in data set [1] (110 µM), 1%. Further, the “Mean % Viability” value in data set [1] (330 µM) and in data set [1] (1000 µM) was 0% in each case. In addition, the “Morphological Observations” value in data set [1] (4.00 μM, 72 hours) was “toxicity”; in data set [1] (10.00 μM (10 μM), 72 hours), “toxicity”.
`CCC=CCC(O)C=CC=CCC=CCC=CCCCC(=O)O` (stereo not drawn) [15-OHEPA, 15-Hydroxy-eicosa-5,8,11,13,17-pentaenoic acid]: the “effect on growth of P. acnes on its own” value in the data set with P. acnes (0.05 mg/mL) is reported as “no effect”. The MIC in the data set on P. acnes lay within 50 to 75 µg/mL (≈ 157 to 236 µM). The “Growth Index Avg” value is reported as “+++” in the data set on P. acnes (compound at 0.010 mg/mL); “+++” in the data set with P. acnes (compound at 0.025 mg/mL); “+++” with P. acnes (compound at 0.050 mg/mL); “+” in the data set on P. acnes (compound at 0.075 mg/mL); “−” in the data set with P. acnes (compound at 0.1 mg/mL). The “Growth Index Plate 1” value with P. acnes (compound at 0.010 mg/mL) is reported as “+++”; in the data set on P. acnes (compound at 0.025 mg/mL), “+++”; in the data set with P. acnes (compound at 0.050 mg/mL) it was “+++”; in the data set with P. acnes (compound at 0.075 mg/mL) it was “+”; with P. acnes (compound at 0.1 mg/mL) it was “−”. The “Growth Index Plate 2” value with P. acnes (compound at 0.010 mg/mL) was “+++”; in the data set with P. acnes (compound at 0.025 mg/mL), “+++”; in the data set on P. acnes (compound at 0.050 mg/mL) it was “+++”; with P. acnes (compound at 0.075 mg/mL), “+”; with P. acnes (compound at 0.1 mg/mL), “−”. In addition, the “Growth Index Plate 3” value in the data set on P. acnes (compound at 0.010 mg/mL) was “+++”; in the data set on P. acnes (compound at 0.025 mg/mL), “+++”; in the data set with P. acnes (compound at 0.050 mg/mL) it was “+++”; in the data set on P. acnes (compound at 0.075 mg/mL), “+”; in the data set with P. acnes (compound at 0.1 mg/mL), “−”.
For orientation: viability means a read-out of living cells in per cent, often relative to untreated cells. On to `CCCCC/C=C\C/C=C\C/C=C\CCCCCCC(=O)O` [DGLA, cis-8,11,14-eicosatrienoic acid], for which the “effect on growth of P. acnes on its own” value in the data set with P. acnes (0.4 mg/ml) is reported as “no effect”. Also, the MIC with P. acnes fell in the range of 400 to 600 µg/mL (≈ 1310 to 1960 µM). Also, the “Growth Index Avg” value in the data set on P. acnes (compound at 0.2 mg/mL) is listed as “+++”; in the data set on P. acnes (compound at 0.4 mg/mL), “+++”; with P. acnes (compound at 0.6 mg/mL), “+”; in the data set with P. acnes (compound at 0.8 mg/mL), “+”; in the data set on P. acnes (compound at 1.0 mg/mL) it was “+”. In addition, the “Growth Index Plate 1” value in the data set on P. acnes (compound at 0.2 mg/mL) is “+++”; in the data set on P. acnes (compound at 0.4 mg/mL), “+++”; in the data set on P. acnes (compound at 0.6 mg/mL) it was “++”; with P. acnes (compound at 0.8 mg/mL) it was “++”; with P. acnes (compound at 1.0 mg/mL), “+”. Moreover, the “Growth Index Plate 2” value was “+++” in the data set with P. acnes (compound at 0.2 mg/mL); “+++” with P. acnes (compound at 0.4 mg/mL); “−” in the data set with P. acnes (compound at 0.6 mg/mL); “+” in the data set on P. acnes (compound at 0.8 mg/mL); “+” with P. acnes (compound at 1.0 mg/mL). For the same compound, the “Growth Index Plate 3” value in the data set with P. acnes (compound at 0.2 mg/mL) was “+++”; in the data set on P. acnes (compound at 0.4 mg/mL), “+++”; in the data set on P. acnes (compound at 0.6 mg/mL) it was “++”; in the data set on P. acnes (compound at 0.8 mg/mL), “+”; with P. acnes (compound at 1.0 mg/mL), “+”. For the same compound, the viability at 1 µM in data set [1] (Homo sapiens, 1.00 μM, 72 hours) is 107%. Further, in data set [1] (Homo sapiens, 4.00 μM, 72 hours), the viability at 4 µM came to 97%. Moreover, the viability at 37 µM in data set [1] (Homo sapiens, 37.00 μM, 72 hours) was found to be 1%. Besides, in data set [1] (Homo sapiens, 111.00 μM, 72 hours), the viability at 111 µM was 2%. In data set [1] (Homo sapiens, 333.00 μM, 72 hours), the viability at 333 µM was 1%. In addition, the viability at 1000 µM in data set [1] (Homo sapiens, 1000.00 μM, 72 hours) stood at 1%. For the same compound, the viability at 3000 µM in data set [1] (Homo sapiens, 3000.00 μM, 72 hours) turned out to be 3%. Moreover, in data set [2], the viability at 12 µM was 63%.
Take `CC[C@H]1OC(=O)[C@H](C)[C@@H](O[C@H]2C[C@@](C)(OC)[C@@H](O)[C@H](C)O2)[C@H](C)[C@@H](O[C@@H]2O[C@H](C)C[C@H](N(C)C)[C@H]2O)[C@](C)(O)C[C@@H](C)C(=O)[C@H](C)[C@@H](O)[C@]1(C)O` [Erythromycin]: the MIC in the data set on P. acnes was 0.01 to 0.05 µg/mL (≈ 0.0136 to 0.0681 µM).
For `CC1=C(/C=C/C(C)=C/C=C/C(C)=C\C(=O)O)C(C)(C)CCC1` [Isotretinoin], in data set [1] (1.11 μM, 72 hours), the “Morphological Observations” value is “toxicity”. In data set [1] (Homo sapiens, 0.005 μM, 72 hours), the viability at 0.005 µM worked out at 105%. Further, in data set [1] (Homo sapiens, 0.014 μM, 72 hours), the viability at 0.014 µM was found to be 110%. Moreover, the viability at 0.041 µM in data set [1] (Homo sapiens, 0.041 μM, 72 hours) turned out to be 103%. Moreover, the viability at 0.123 µM in data set [1] (Homo sapiens, 0.123 μM, 72 hours) worked out at 96%. For the same compound, the viability at 0.37 µM in data set [1] (Homo sapiens, 0.370 μM, 72 hours) was determined as 88%. Further, in data set [1] (Homo sapiens, 1.11 μM, 72 hours), the viability at 1.11 µM came out at 76%. Moreover, the viability at 3.33 µM in data set [1] (Homo sapiens, 3.33 μM, 72 hours) amounted to 8%. Further, the viability at 10 µM in data set [1] (Homo sapiens, 10.00 μM (10 μM), 72 hours) came to 1%.
